Where a SMILES comes first, the peptide text is derived from it.

Results on 15 compounds are retold here after patent US5486595A, “Tumor necrosis factor inhibitors” (Centecor, Inc., priority 1994, dated 1996).

The test has as its target T1, human TNFα (Homo sapiens, UniProt P01375).
T1 construct: purchased Biosource, Camarillo, Calif
Briefly: p55 Receptor/IgG Fusion Protein Binding Assay (inhibition of TNFα capture by p55-Ig coated plate). The settings on record: peptide 1 mM, TNFα 25 ng/ml; for inhibition at 1000 µM: read-out: inhibition of binding of TNFα to p55TNFr-IgG chimeric construct. The protocol: This assay was designed to identify peptides which bind to human TNFα and thereby prevent the capture of the TNFα by a microtiter plate coated with p55-Ig fusion protein. A constant concentration of human TNFα is preincubated with the test peptide and then incubated on the p55-Ig coated microtiter wells. Bound TNFα is detected using a specific antisera and an alkaline phosphatase-conjugated probe.
A 96-well, U-bottom polyvinylchloride microtiter plate was coated with 50 μl/well of p55-Ig fusion protein at 5 μg/ml in 0.01M sodium phosphate, 0.15M sodium chloride (PBS) by incubation overnight at 4° C. or 2 hours at 37° C. The fusion protein, which consists of a p55 TNF receptor protein portion and an IgG portion, can be produced as disclosed in U.S. application Ser. No. 08/010,406 filed Jan. 29, 1993 which is incorporated herein by reference. The plate was washed three times with 0.05% Tween-20 in PBS, then blocked, by adding 150 μl/well of assay buffer (10 mM N-2-hydroxyethylpiperazine-N'-[…] (HEPES) pH 7.2, containing 0.1% porcine gelatin, 0.1% Tween-80, and 0.01% sodium azide) and continuing incubation for 1 hour at 37° C. or at 4° C. for 1-7 days.
Lyophilized peptides to be tested were weighed in tared 12×75 mm polystyrene tubes and reconstituted to a concentration of 1.2 mM with assay buffer. Each suspension was sonicated in a water bath for 1-5 minutes and vortexed 15-30 seconds to disperse large particles. Serial dilutions of each peptide suspension were prepared using assay buffer in a 96-well polystyrene microtiter plate. Additional wells received Fab fragment of the mouse/human monoclonal anti-human TNFα antibody cA2 (positive control) or assay buffer (negative control). […] The polystyrene dilution plate was then sealed and incubated 1 hour at room temperature on an orbital mixer set at moderate speed.
Following the sample preincubation, blocker was discarded from the p55-Ig coated plate and blotted dry. Aliquots (50 μl) of each peptide or control were transferred into duplicate wells on the p55-Ig coated plate which was then sealed and incubated i hour at 37° C. Duplicate wells containing only assay buffer were included as a plate blank. After incubation the p55-Ig plate was washed three times with 0.05% Tween-20 in PBS.
To detect TNFα captured by the p55-Ig plate, all wells were incubated in succession with polyclonal rabbit anti-human TNFα (Genzyme, Boston, Mass.; 1:500 in assay buffer, 50 μl/well), biotinylated goat anti-rabbit Ig (H&L) (Vector Laboratories, Burlingame, Calif.; 1 μg/ml in assay buffer, 50 μl/well) and streptavidin-alkaline phosphatase conjugate (Pierce, Rockford, Ill.; 1 μg/ml in assay buffer, 50 μl/well). All incubations were for 1 hour at 37° C. and after each incubation the plate was washed three times with 0.05% Tween-20 in PBS. Fifty microliters of alkaline phosphatase substrate solution (alkaline buffer (Sigma, St. Louis, Mo.) diluted 1:500 in deionized water plus one 5 mg tablet of p-nitrophenyl phosphate (Sigma, St. Louis, Mo.) per 5 ml of diluted buffer) was added to all wells and incubation continued for 20 minutes at room temperature. Color development was stopped by adding to all wells 50 μl of 3N sodium hydroxide. The optical density (OD) at 405 nm was measured on a microtiter plate reader (Molecular Devices Vmax plate reader), with the plate blank wells subtracted as background. The activity of each peptide was then expressed as the percent inhibition of TNFα capture by the p55-Ig plate, relative to the amount of TNFα captured in wells containing only assay buffer (negative control), as follows: % inhibition=100-((mean OD peptide/mean OD negative control)×100).
The inhibition of binding of TNFα to p55TNFr-IgG chimeric construct was performed as described above using several embodiments of the invention. The peptides were tested at a concentration of 1 mM.

T1 sequence (P01375 77-233 limits assumed): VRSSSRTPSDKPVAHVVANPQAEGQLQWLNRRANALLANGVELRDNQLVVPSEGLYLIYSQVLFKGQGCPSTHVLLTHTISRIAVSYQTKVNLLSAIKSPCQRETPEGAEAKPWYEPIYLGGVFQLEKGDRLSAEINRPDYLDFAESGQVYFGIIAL

`CC(C)C[C@H](NC(=O)[C@H](CCCNC(=N)N)NC(=O)[C@H](C)NC(=O)[C@@H](NC(=O)[C@H](CO)NC(=O)CNC(=O)[C@@H]1CCCN1C(=O)[C@@H](N)CCC(=O)O)[C@@H](C)O)C(=O)N[C@@H](CCCNC(=N)N)C(=O)N[C@@H](CCC(=O)O)C(=O)N[C@@H](Cc1ccc(O)cc1)C(=O)N[C@@H](Cc1ccc(O)cc1)C(=O)N[C@@H](CC(=O)O)C(=O)N[C@@H](CCC(N)=O)C(=O)N[C@H](C(N)=O)[C@@H](C)O` [SEQ ID NO:27] (H-EPGSTARLREYYDQT-NH2): the inhibition at 1000 µM was determined as 78%. Same read-out and setting: the value for `CC(=O)N[C@@H](CC(C)C)C(=O)N[C@@H](Cc1ccccc1)C(=O)N[C@@H](CCC(N)=O)C(=O)N[C@@H](C)C(=O)N[C@@H](Cc1ccccc1)C(=O)N[C@@H](CC(N)=O)C(=O)N[C@@H](C)C(=O)N[C@@H](CO)C(=O)N[C@@H](CC(C)C)C(=O)N[C@@H](C)C(=O)N[C@@H](CC(C)C)C(=O)N[C@@H](CC(N)=O)C(=O)NCC(=O)N[C@H](C(=O)N[C@H](C(N)=O)C(C)C)[C@@H](C)O` [SEQ ID NO:12, Acetyl-leucyl-phenylalanyl-glutaminyl-alanyl-phenylalanyl-asparaginyl-alanyl-seryl-leucyl-alanyl-leucyl-asparaginyl-glycyl-threonyl-valine Amide] (Ac-LFQAFNASLALNGTV-NH2) was 40%. For the compound “SEQ ID NO:49: peptide of the invention that inhibits TNFα; sequence not printed (ARPHQIANVVAIPGN)”, the “inhibition of binding of TNFα to p55TNFr-IgG chimeric construct” value (from here on “inhibition of binding of TNFα”) was found to be 26%. Take `C[C@@H](O)[C@H](NC(=O)[C@H](CO)NC(=O)[C@@H]1CCCN1C(=O)[C@H](CCC(=O)O)NC(=O)[C@@H]1CCCN1C(=O)[C@@H](NC(=O)[C@@H]1CCCN1C(=O)[C@H](CCC(N)=O)NC(=O)[C@@H](NC(=O)[C@H](Cc1c[nH]cn1)NC(=O)[C@H](CCC(N)=O)NC(=O)[C@H](CO)NC(=O)[C@H](CCCNC(=N)N)NC(=O)[C@@H](NC(=O)[C@@H](N)CO)[C@@H](C)O)[C@@H](C)O)[C@@H](C)O)C(N)=O` [SEQ ID NO:57] (H-STRSQHTQPTPEPST-NH2): the inhibition at 1000 µM amounted to 72%. The same measure, in the same setting: the same measure for `CC[C@H](C)[C@H](NC(=O)[C@H](CCC(=O)O)NC(=O)[C@@H](NC(=O)[C@H](CCC(N)=O)NC(=O)CN)C(C)C)C(=O)N[C@@H](CO)C(=O)N[C@@H](CO)C(=O)N[C@@H](C)C(=O)N[C@H](C(=O)N[C@H](C(=O)N[C@@H](CC(=O)O)C(=O)N[C@@H](CCCNC(=N)N)C(=O)N[C@@H](CC(=O)O)C(=O)N[C@H](C(=O)N[C@H](C(N)=O)C(C)C)[C@@H](C)O)C(C)C)[C@@H](C)O` [SEQ ID NO:8] (H-GQVEISSATVDRDTV-NH2): 56%; for `CC(C)C[C@H](NC(=O)[C@H](Cc1c[nH]cn1)NC(=O)[C@H](CC(N)=O)NC(=O)[C@H](CCC(=O)O)NC(=O)[C@H](CO)NC(=O)[C@H](C)NC(=O)[C@@H](NC(=O)[C@H](Cc1ccccc1)NC(=O)[C@H](CO)NC(=O)CNC(=O)[C@H](CO)NC(=O)[C@H](CCC(=O)O)NC(=O)[C@H](C)NC(=O)[C@@H](N)CCC(=O)O)[C@@H](C)O)C(=O)N[C@@H](CCCNC(=N)N)C(N)=O` [SEQ ID NO:6, Glutamyl-alanyl-glutamyl-seryl-glycyl-seryl-phenylalanyl-threonyl-alanyl-seryl-glutamyl-asparaginyl-histidyl-leucyl-arginine Amide] (H-EAESGSFTASENHLR-NH2): 53%. In the case of `CC[C@H](C)[C@H](NC(=O)[C@H](CCC(N)=O)NC(=O)[C@@H]1CCCN1)C(=O)N[C@@H](CCC(=O)O)C(=O)N[C@@H](CC(N)=O)C(=O)N[C@H](C(=O)N[C@@H](CCCCN)C(=O)NCC(=O)N[C@H](C(=O)N[C@@H](CCC(=O)O)C(=O)N[C@@H](CC(N)=O)C(=O)N[C@@H](CO)C(=O)NCC(=O)N[C@H](C(=O)N[C@H](C(N)=O)[C@@H](C)O)[C@@H](C)O)[C@@H](C)O)C(C)C` [SEQ ID NO:23, Prolyl-glutaminyl-isoleucyl-glutamyl-asparaginyl-valyl-lysyl-glycyl-threonyl-glutamyl-asparaginyl-seryl-glycyl-threonyl-threonine Amide] (H-PQIENVKGTENSGTT-NH2), the inhibition at 1000 µM worked out at 52%. For the compound “SEQ ID NO:47: peptide of the invention that inhibits TNFα; sequence not printed (TSSTDIARPHQIANV)”, the “inhibition of binding of TNFα” value came out at 29%. Turning to `C[C@H](NC(=O)[C@@H](NC(=O)[C@H](Cc1ccccc1)NC(=O)[C@H](CO)NC(=O)CNC(=O)[C@H](CO)NC(=O)[C@H](CCC(=O)O)NC(=O)[C@H](C)NC(=O)[C@H](CCC(=O)O)NC(=O)[C@H](CCCNC(=N)N)NC(=O)[C@H](C)NC(=O)[C@H](CC(=O)O)NC(=O)[C@@H](NC(=O)[C@H](CC(=O)O)NC(=O)[C@@H](N)CCC(N)=O)[C@@H](C)O)[C@@H](C)O)C(N)=O` [SEQ ID NO:4, Glutaminyl-aspartyl-threonyl-aspartyl-alanyl-arginyl-glutamyl-alanyl-glutamyl-seryl-glycyl-seryl-phenylalanyl-threonyl-alanine Amide] (H-QDTDAREAESGSFTA-NH2), the inhibition at 1000 µM amounted to 53%. On the same count and under the same terms, the value for `CC(C)C[C@H](NC(=O)[C@H](Cc1ccccc1)NC(=O)[C@H](Cc1ccccc1)NC(=O)CNC(=O)[C@H](C)NC(=O)[C@H](Cc1c[nH]cn1)NC(=O)[C@H](C)NC(=O)[C@@H](N)[C@@H](C)O)C(=O)N[C@@H](CCCNC(=N)N)C(=O)N[C@@H](CCC(=O)O)C(=O)N[C@@H](CC(N)=O)C(=O)N[C@@H](CCC(=O)O)C(=O)N[C@@H](C)C(=O)N[C@H](C(=O)N[C@@H](CO)C(N)=O)C(C)C` [SEQ ID NO:18] (H-TAHAGFFLRENEAVS-NH2) was 68%. Turning to `C[C@H](NC(=O)[C@@H](NC(=O)[C@H](CO)NC(=O)[C@@H]1CCCN1C(=O)[C@H](CCC(=O)O)NC(=O)[C@@H]1CCCN1C(=O)[C@@H](NC(=O)[C@@H]1CCCN1C(=O)[C@H](CCC(N)=O)NC(=O)[C@@H](N)[C@@H](C)O)[C@@H](C)O)[C@@H](C)O)C(=O)N1CCC[C@H]1C(=O)N[C@@H](CO)C(=O)N[C@H](C(=O)N[C@@H](CO)C(=O)N[C@@H](Cc1ccccc1)C(N)=O)[C@@H](C)O` [SEQ ID NO:59] (H-TQPTPEPSTAPSTSF-NH2), the inhibition at 1000 µM came out at 73%. Regarding “SEQ ID NO:41: peptide of the invention that inhibits TNFα; sequence not printed (EALSAGSRASSDQVE)”, the “inhibition of binding of TNFα” value was found to be 68%. In the case of “SEQ ID NO:53: peptide of the invention that inhibits TNFα; sequence not printed (DAVATSTSPTRSMAP)”, the “inhibition of binding of TNFα” value is recorded as 63%. As for `CC(C)C[C@H](NC(=O)[C@H](Cc1ccccc1)NC(=O)[C@H](CO)NC(=O)[C@@H](NC(=O)[C@H](CO)NC(=O)[C@@H]1CCCN1C(=O)[C@H](C)NC(=O)[C@@H](NC(=O)[C@H](CO)NC(=O)[C@@H]1CCCN1C(=O)[C@H](CCC(=O)O)NC(=O)[C@@H]1CCCN1C(=O)[C@@H](N)[C@@H](C)O)[C@@H](C)O)[C@@H](C)O)C(=O)N[C@@H](CC(C)C)C(=O)N1CCC[C@H]1C(N)=O` [SEQ ID NO:60] (H-TPEPSTAPSTSFLLP-NH2), the inhibition at 1000 µM came to 73%. Same read-out and setting: the same measure for `C[C@H](NC(=O)[C@H](CCC(=O)O)NC(=O)[C@H](CCCNC(=N)N)NC(=O)[C@H](C)NC(=O)[C@@H](N)CC(=O)O)C(=O)N[C@@H](CCC(=O)O)C(=O)N[C@@H](CO)C(=O)NCC(=O)N[C@@H](CO)C(=O)N[C@@H](Cc1ccccc1)C(=O)N[C@H](C(=O)N[C@@H](C)C(=O)N[C@@H](CO)C(=O)N[C@@H](CCC(=O)O)C(=O)N[C@@H](CC(N)=O)C(N)=O)[C@@H](C)O` [SEQ ID NO:5] (H-DAREAESGSFTASEN-NH2): 58%.
